Laboratory results reported in patent US11129801B2 (SigmaThera SAS, priority 2016, dated 2021).

Key:
sigma-1R = settings: read-out: IC50 / affinity for sigma-1R; cited from earlier work
[1] = test system: Aβ25-35 mouse model of Alzheimer's disease; experiment: Spontaneous alternation in the Y-maze, Aβ25-35 mouse model; format: in vivo
Procedure: (§1) The compound efficacy was evaluated 7 days after the peptide administration on the attenuation of the Aβ25-35-induced learning deficits (spatial working memory using the spontaneous alternation in the Y-maze test, and contextual long-term memory using the passive avoidance test).
(§2) The mice were tested 7 days post injection or at the indicated time points.
(§3) In Experiment 2, twelve mice per experimental group were administered Sc.Aβ or Aβ25-35-amyloid peptide on day 0 by i.c.v. injection. […] Animals were tested at day 7 and later.
(§4) The synergy/additivity/antagonism was evaluated by calculating the combination index. […] Animals were then tested at day 7 and later.
(§5) Animals were tested at day 7 and later.
(§6) For each of Experiments 1-4, on day 7, all animals were tested for the spontaneous alternation performance in the Y-maze test, an index of spatial working memory. On day 8 and 9, the contextual long-term memory of the animals was assessed using the step-through type passive avoidance procedure. On day 9, immediately after the retention session, animals were sacrificed by decapitation and the hippocampus and cortex dissected out. Lipid peroxidation was analyzed in the hippocampus, whereas neuroinflammation, apoptosis, amyloid burden and hyperphosphorylation of tau protein were analyzed in cortex.
(§7) The homogeneous oligomeric preparation of Aβ25-35 peptide was performed according to the AMYLGEN's own procedure. Each mouse was anesthetized with isoflurane 2.5% and injected i.c.v. with Aβ25-35 peptide (9 nmol/mouse) or Sc.Aβ peptide (9 nmol/mouse), in a final volume of 3 μl/mouse, according to the previously described method (Maurice T, et al. (1996). Brain Res. 706(2): 181-193, Maurice T, et al. (1998) Neuroscience 83(2): 413-428, Meunier J, et al. (2006) British J. Pharmacol. 149(8): 998-1012, Villard V, et al. (2009) Neuropsychopharmacology 34(6): 1552-1566, Villard V, et al. (2011) J. Pharmacol. Sci. 115(3): 279-292).
(§8) Animals: Male Swiss mice, 6 weeks old and weighing 30-35 g, from JANVIER (Saint Berthevin, France), were kept for housing and experiments took place within the animal facility building of the University of Montpellier 2 (CECEMA, Office of Veterinary Services agreement #B-34-172-23). Animals were housed in groups with access to food and water ad libitum, except during behavioral experiments. They were kept in a temperature and humidity controlled animal facility on a 12 h/12 h light/dark cycle (lights off at 07:00 pm). Mice were numbered by marking their tail using permanent markers. All animal procedures were conducted in strict adherence to the European Union directive of Sep. 22, 2010 (2010/63/UE). Diagnostic summary reports of JANVIER were annexed to the study report.
Spontaneous alternation performance: Immediate working memory performance was assessed by recording spontaneous alternation behavior during a single session in a Y-maze as described previously (Itoh J, et al. (1993) Eur J Pharmacol 236(3): 341-345; Hiramatsu M and Inoue K (1999) Br J Pharmacol 127(3): 655-660). The Y-maze is made of grey polyvinylchloride. Each arm of the Y-maze was 40 cm long, 3 cm wide, and 13 cm high at the bottom, 10 cm wide at the top, and converging at an equal angle. Each mouse was placed at the end of one arm and allowed to move freely through the maze during an 8 min session. The series of arm entries, including possible returns into the same arm, was checked visually. An alternation was defined as entries into all three arms on consecutive occasions. The number of maximum alternations is therefore the total number of arm entries minus two and the percentage of alternation was calculated as (actual alternations/maximum alternations)×100. Parameters included the percentage of alternation (memory index) and total number of arm entries (exploration index).

[2] = test system: Aβ25-35 mouse model of Alzheimer's disease; experiment: Aβ25-35 mouse model, overall neuroprotection (summary statements); format: in vivo
Procedure: as §1, §2, §3, §4, §5, §6

[3] = test system: hippocampal lipid peroxidation; experiment: Hippocampal lipid peroxidation (LPO) measurement, Aβ25-35 mouse model; format: in vivo; settings: for hippocampal LPO levels: 1 mg/kg
Procedure: as §6
Sacrifice: At the end of the passive avoidance retention session, on day 9, the animals were sacrificed by decapitation. The hippocampi and frontal cortex were dissected out and kept at −80° C. until the measurement of lipid peroxidation and other markers.
Lipid peroxidation measurement: At day 24, 6 hippocampi from each group were used. After thawing, homogenates were homogenized in cold methanol ( 1/10 w/v), centrifuged at 1,000 g during 5 min and the supernatant placed in Eppendorf tube. The reaction volume of each homogenate was added to FeSO4 1 mM, H2SO4 0.25 M, xylenol orange 1 mM and incubated for 30 min at room temperature. After reading the absorbance at 580 nm (A5801), 10 μl of cumene hydroperoxyde (CHP) 1 mM was added to the sample and incubated for 30 min at room temperature, to determine the maximal oxidation level. The absorbance was measured at 580 nm (A5802). The level of lipid peroxidation was determined as CHP equivalents according to: CHPE=A5801/A5802×[CHP (nmol)] and expressed as CHP equivalents per wet weight of tissue and as percentage of control group data (Veh-treated Sc.Aβ-administered mice).

[4] = test system: Aβ25-35 mouse model of Alzheimer's disease; experiment: Step-through passive avoidance test, Aβ25-35 mouse model; format: in vivo
Procedure: as §1, §2, §3
Each of these doses was, by itself, unable to produce any protective effect. The synergy/additivity/antagonism was evaluated by calculating the combination index. […] Animals were then tested at day 7 and later.
as §6, §7
as §8, with “Mice were numbered by marking their tail using permanent markers. All animal procedures were conducted in strict adherence to the European Union directive of Sep. 22, 2010 (2010/63/UE). Diagnostic summary reports of JANVIER were annexed to the study report.” left out
Passive avoidance test: The passive avoidance task was used to evaluate learning and memory in mice treated with igmesine. […] The step-through latency, that is, the latency spent to enter the dark compartment, and the number of vocalizations was recorded. […]

[5] = Experiment 1, pre-treatment, 0.1, 0.3, 1 mg/kg i.p.
[6] = Experiment 2, post-treatment day 1 to day 6

CCC(C/C=C/c1ccccc1)(c1ccccc1)N(C)CC1CC1 (single isomer, unassigned; (+)) [igmesine, (+)-(E)-N-(cyclopropylmethyl)-N-methyl-3,6-diphenylhex-5-en-3-amine]
IC50 (sigma-1R): 39 ± 8 nM | prevention of Aβ25-35-induced spontaneous alternation deficits ([1]; Experiment 1, i.p. 20 min before Aβ25-35, 0.1, 0.3, 1 mg/kg): dose-dependently prevented | prevention of Aβ25-35-induced spontaneous alternation deficits ([1]; Experiment 2, post-treatment i.p. day 1 to day 6): prevented the Aβ25-35-induced deficits at the highest doses tested | highest sub-active dose, spontaneous alternation ([1]; Experiment 3, i.p.): 0.1 mg/kg | dose in combination versus dose active on depression (fold lower) ([2]; combined with donepezil, ibuprofen, selegiline or atorvastatin): 300 fold | lowest dose with effect, preventive treatment ([2]; given 20 min before Aβ25-35): 0.3 mg/kg | lowest dose with effect, curative treatment ([2]; starting 1 day after induction of the toxicity): 1 mg/kg | synergistic effect in combination ([2]; with donepezil, ibuprofen, selegiline or atorvastatin, not with memantine): clear synergistic effect | hippocampal LPO levels ([3]; Experiment 1, pre-treatment): fully normalized | hippocampal LPO levels ([3]; Experiment 2, post-treatment): fully normalized | synergy on hippocampal LPO with donepezil ([3]; Experiment 3, igmesine 0.1 mg/kg + donepezil […]): did synergize | synergy on hippocampal LPO with memantine ([3]; Experiment 3, igmesine 0.1 mg/kg + memantine): synergy was not present | prevention of passive avoidance deficits, escape latency [4, 5]: at the highest dose | prevention of passive avoidance deficits, step-through latency [4, 5]: significant prevention at the two highest dose tested | prevention of passive avoidance deficits, escape latency [4, 6]: significant prevention at the highest dose tested | prevention of passive avoidance deficits, step-through latency [4, 6]: significant prevention at the highest dose tested
